Each block holds one compound with its values, some of them ahead of it.
What was measured:
[1] = particle size distribution measurement by laser diffraction; assay type: physicochemical; conditions: milled active substance
From the text: The value X90 refers to the 90% value of the volume distribution measured using a laser diffractometer. In other words, for the purposes of the present invention, the X90 value denotes the particle size below which 90% of the quantity of particles is found based on the volume distribution. Analogously the value X50 refers to the 50% value (median) of the volume distribution measured using a laser diffractometer. In other words, for the purposes of the present invention, the X50 value denotes the particle size below which 50% of the quantity of particles is found based on the volume distribution. Analogously the value X10 refers to the 10% value of the volume distribution measured using a laser diffractometer. In other words, for the purposes of the present invention, the X10 value denotes the particle size below which 10% of the quantity of particles is found based on the volume distribution.
Preferably all X90, X50, X10 values hereinbefore and hereinafter are by volume and determined by laser-diffraction method, in particular low angle laser light scattering, i.e. Fraunhofer diffraction. A preferred test is described in the experimental section. The laser diffraction method is sensitive to the volume of a particle and provides a volume-average particle size, which is equivalent to the weight-average particle size if the density is constant. The skilled artesian knows that the results of the particle size distribution determination by one technique can be correlated with that from another technique, for example on an empirical basis by routine experimentation. Alternatively the particle size distribution in the pharmaceutical composition or dosage form can be determined by microscopy, in particular electron microscopy or scanning electron microscopy.
Particle size distribution measurement is performed for example via light scattering or laser diffraction technique. To determine the particle size the powder is fed into a laser diffraction spectrometer for example by means of a dispersing unit. The test method is described below in detail: • Equipment: Laser Diffraction Spectrometer Sympatec HELOS Particle Sizer. • Lens: R31 (0.5/0.9 μm-175 μm) • Sample Dispersing Unit: Dry disperser RODOS/M • Vacuum: Nilfisk • Feeder: ASPIROS • Feed Velocity: 60.00 mm/s • Primary pressure: 2.00 bar • Injector depression: maximize (mbar)2 • Reference Measurement: 10 seconds • Cycle Time: 100 msec • Trigger Conditions: Start 0.0 seconds after optical concentration ≥1% valid always • Stop after 5.0 seconds optical concentration ≤1% or after 30 seconds real time • Optical Concentration: Approximately range 3-12% • Evaluation: HRLD • Sample Size: Approximately 100 mg • Number of measurements: 2 (duplicate)
The instrument is set up according to the manufacturer's recommendation and using the manufacturer provided software. The sample container is thoroughly mixed and tumbled prior to removing a portion of the sample to ensure that a representative sample is tested. Duplicate samples are prepared by using a spatula to transfer approximately 100 mg of a sample into the ASPIROS glass vials and cap the vials. The capped cials are placed into the feeder.

blood glucose = test: oral glucose tolerance test in ZDF rats; assay type: in vivo, rat; conditions: oral glucose load 2 g/kg 30 min later
Procedure: According to a first example an oral glucose tolerance test is performed in overnight fasted 9-weeks old male Zucker Diabetic Fatty (ZDF) rats (ZDF/Crl-Lepr^fa). A pre-dose blood sample is obtained by tail bleed. Blood glucose is measured with a glucometer, and the animals are randomized for blood glucose (n=5/group). Subsequently, the groups receive a single oral administration of either vehicle alone (0.5% aqueous hydroxyethylcellulose containing 3 mM HCl and 0.015% Polysorbat 80) or vehicle containing the SGLT2 inhibitor. The animals receive an oral glucose load (2 g/kg) 30 min after compound administration. Blood glucose is measured in tail blood 30 min, 60 min, 90 min, 120 min, and 180 min after the glucose challenge. Glucose excursion is quantified by calculating the reactive glucose AUC. The data are presented as mean±SEM. The two-sided unpaired Student t-test is used for statistical comparison of the control group and the active groups.
Compound (I.9) (1-chloro-4-(β-D-glucopyranos-1-yl)-2-[4-((S)-tetrahydrofuran-3-yloxy)-benzyl]-benzene) was orally administered to ZDF rats at doses of 0.3 mg/kg, 3 mg/kg or 30 mg/kg body weight. Compound (I.9) reduced glucose excursion by 15% at 0.3 mg/kg (not significant), by 62% at 3 mg/kg (p<0.001) and by 89% at 30 mg/kg (p<0.001).

serum uric acid = test: twelve week study of serum uric acid levels in patients with manifest type 2 diabetes mellitus; assay type: in vivo, human; conditions: type 2 diabetes patients; for serum uric acid level, 12 weeks: after 12 weeks
Procedure: In a twelve week study of patients with manifest type 2 diabetes mellitus serum uric acid levels were measured at baseline and every 4 weeks in patients randomized to an administration of the compound (I.9) of 5 mg, 10 mg, or 25 mg or placebo or metformin 2000 mg, daily for 12 weeks.

[2] = body weight in cafeteria-diet obese female Wistar rats; assay type: in vivo, rat; conditions: 28 days
Procedure: All experimental procedures concerning the use of laboratory animals were carried out under a Home Office Certificate of Designation. An animal model of obesity was used to study the effect of the compound (I.9) on body weight and total body fat content. For this, female Wistar rats were made obese by exposure to a simplified cafeteria diet containing high fat chow, chocolate and ground peanuts for approximately 24 weeks. Following the induction of obesity, rats were given vehicle (0.5% aqueous hydroxyethyl-cellulose) for 7 days and then dosed orally once daily with either vehicle or 3 mg/kg or 10 mg/kg compound (I.9) for 28 days. For the duration of the study rats were maintained on the cafeteria diet. Therein “Cpd A” denotes the glucopyranosyl-substituted benzene derivative (I.9) at a dose of 3 mg/kg or 10 mg/kg. Results are means (adjusted for differences between the body weights of the different treatment groups at baseline (Day 1))±SEM (calculated from the residuals of the statistical model), n=10. After 28 day daily oral treatment with the compound (I.9) a reduced body weight compared to the vehicle-treated control group was observed. Body weight data was analysed by analysis of covariance with body weights on Day 1 as covariate. […]

[3] = total body fat content (FoodScan NIR) in cafeteria-diet obese female Wistar rats; assay type: in vivo, rat; conditions: 10 mg/kg orally once daily, end of study Day 34, p<0.05
Procedure: All experimental procedures concerning the use of laboratory animals were carried out under a Home Office Certificate of Designation. An animal model of obesity was used to study the effect of the compound (I.9) on body weight and total body fat content. For this, female Wistar rats were made obese by exposure to a simplified cafeteria diet containing high fat chow, chocolate and ground peanuts for approximately 24 weeks. Following the induction of obesity, rats were given vehicle (0.5% aqueous hydroxyethyl-cellulose) for 7 days and then dosed orally once daily with either vehicle or 3 mg/kg or 10 mg/kg compound (I.9) for 28 days. […] Results are means (adjusted for differences between the body weights of the different treatment groups at baseline (Day 1))±SEM (calculated from the residuals of the statistical model), n=10. […] Body weight data was analysed by analysis of covariance with body weights on Day 1 as covariate. […]
At the end of the study on Day 34 (24 hours after the last treatment on Day 33) all rats were terminated, the body exsanguinated and the following tissues removed: the caudate liver lobe, the pancreas, the left kidney and one soleus muscle. Body composition (body fat, protein and water) was determined using the FoodScan NIR (near infra-red) meat analyser (Foss UK). […] Standard errors of the mean (SEM) are calculated from the residuals of the statistical model. […]

HbA1c = conditions: metformin on its own, in the diabetic; cited from earlier work

X10 (particle size, volume distribution) [1]: 1.8 μm
X50 (particle size, volume distribution) [1]: 18.9 μm
X90 (particle size, volume distribution) [1]: 45.3 μm
Compound: OC[C@H]1O[C@@H](c2ccc(Cl)c(Cc3ccc(O[C@H]4CCOC4)cc3)c2)[C@H](O)[C@@H](O)[C@@H]1O [Active substance Batch 1]

X10 (particle size, volume distribution) [1]: 1.7 μm
X50 (particle size, volume distribution) [1]: 12.1 μm
X90 (particle size, volume distribution) [1]: 25.9 μm
Compound: OC[C@H]1O[C@@H](c2ccc(Cl)c(Cc3ccc(O[C@H]4CCOC4)cc3)c2)[C@H](O)[C@@H](O)[C@@H]1O [Active substance Batch 2]

Compound: OC[C@H]1O[C@@H](c2ccc(Cl)c(Cc3ccc(O[C@H]4CCOC4)cc3)c2)[C@H](O)[C@@H](O)[C@@H]1O [Compound (I.9), 1-chloro-4-(β-D-glucopyranos-1-yl)-2-[4-((S)-tetrahydrofuran-3-yloxy)-benzyl]-benzene]
reduction of glucose excursion (reactive glucose AUC) (blood glucose; single oral dose 0.3 mg/kg, not significant): 15%
reduction of glucose excursion (reactive glucose AUC) (blood glucose; single oral dose 3 mg/kg, p<0.001): 62%
reduction of glucose excursion (reactive glucose AUC) (blood glucose; single oral dose 30 mg/kg, p<0.001): 89%
serum uric acid level, baseline (serum uric acid; 5 mg daily group): 5.5 mg/dL
serum uric acid level, 12 weeks (serum uric acid; 5 mg daily): 5.0 mg/dL
serum uric acid level, baseline (serum uric acid; 10 mg daily group): 5.3 mg/dL
serum uric acid level, 12 weeks (serum uric acid; 10 mg daily): 4.7 mg/dL
serum uric acid level, baseline (serum uric acid; 25 mg daily group): 5.4 mg/dL
serum uric acid level, 12 weeks (serum uric acid; 25 mg daily): 4.7 mg/dL
reduction in serum uric acid levels compared to baseline (serum uric acid; all doses (5 mg, 10 mg, 25 mg daily), 12 weeks): 0.5 to 0.7 mg/dL
reduction of body weight versus vehicle control ([2]; 3 mg/kg orally once daily): 4.1%
reduction of body weight versus vehicle control ([2]; 10 mg/kg orally once daily, significant (p<0.05)): 6.9%
total body fat content (weight per rat) in comparison to vehicle-treated animals [3]: significantly lower

Compound: CN(C)C(=N)N=C(N)N [Metformin, reference compound]
serum uric acid level, baseline (serum uric acid; 2000 mg daily group): 5.6 mg/dL
change of serum uric acid levels compared to baseline (serum uric acid; 2000 mg daily, 12 weeks): increased
serum uric acid level, 12 weeks (serum uric acid; 2000 mg daily): 6.2 mg/dL
average improvement in the HbA1c value (HbA1c): 1.0-1.5%
